# According to ChEMBL document CHEMBL3352227, “Synthesis, antimycobacterial and antibacterial evaluation of l-[(1R, 2S)-2-fluorocyclopropyl]fluoroquinolone derivatives containing an oxime functional moiety” (Eur J Med Chem, 2014):
# Tested on: Klebsiella pneumoniae
# Assay: Antibacterial activity against extended-spectrum beta-lactamase producin Klebsiella pneumoniae 12-4 after 18 to 24 hrs by standard twofold serial dilution method
# Type: functional
row,Compound,MIC [µg/mL]
1,CCO/N=C1/CN(c2nc3c(cc2F)c(=O)c(C(=O)O)cn3[C@@H]2C[C@@H]2F)CC1CN (some centres not stated),8

# Tested on: Pseudomonas aeruginosa
# Assay: Antibacterial activity against Pseudomonas aeruginosa 12-12 after 18 to 24 hrs by standard twofold serial dilution method
# Type: functional
row,Compound,MIC [µg/mL]
1,CCO/N=C1/CN(c2nc3c(cc2F)c(=O)c(C(=O)O)cn3[C@@H]2C[C@@H]2F)CC1CN (some centres not stated),0.125

# Tested on: Klebsiella pneumoniae
# Assay: Antibacterial activity against extended-spectrum beta-lactamase producin Klebsiella pneumoniae 12-7 after 18 to 24 hrs by standard twofold serial dilution method
# Type: functional
row,Compound,MIC [µg/mL]
1,CCO/N=C1/CN(c2nc3c(cc2F)c(=O)c(C(=O)O)cn3[C@@H]2C[C@@H]2F)CC1CN (some centres not stated),0.125

# Tested on: Staphylococcus aureus
# Assay: Antibacterial activity against methicillin-resistant Staphylococcus aureus 12-4 after 18 to 24 hrs by standard twofold serial dilution method
# Type: functional
row,Compound,MIC [µg/mL]
1,CCO/N=C1/CN(c2nc3c(cc2F)c(=O)c(C(=O)O)cn3[C@@H]2C[C@@H]2F)CC1CN (some centres not stated),4

# Tested on: Mycobacterium tuberculosis
# Assay: Antimycobacterial activity against Mycobacterium tuberculosis H37Rv ATCC 27294 by MABA method
# Type: functional
row,Compound,MIC [µg/mL]
1,CCO/N=C1/CN(c2nc3c(cc2F)c(=O)c(C(=O)O)cn3[C@@H]2C[C@@H]2F)CC1CN (some centres not stated),0.5

# Tested on: Klebsiella pneumoniae
# Assay: Antibacterial activity against Klebsiella pneumoniae 12-1 after 18 to 24 hrs by standard twofold serial dilution method
# Type: functional
row,Compound,MIC [µg/mL]
1,CCO/N=C1/CN(c2nc3c(cc2F)c(=O)c(C(=O)O)cn3[C@@H]2C[C@@H]2F)CC1CN (some centres not stated),0.03

# Tested on: Klebsiella pneumoniae
# Assay: Antibacterial activity against extended-spectrum beta-lactamase producin Klebsiella pneumoniae 12-3 after 18 to 24 hrs by standard twofold serial dilution method
# Type: functional
row,Compound,MIC [µg/mL]
1,CCO/N=C1/CN(c2nc3c(cc2F)c(=O)c(C(=O)O)cn3[C@@H]2C[C@@H]2F)CC1CN (some centres not stated),16

# Tested on: Escherichia coli
# Assay: Antibacterial activity against extended-spectrum beta-lactamase producing Escherichia coli 12-3 after 18 to 24 hrs by standard twofold serial dilution method
# Type: functional
row,Compound,MIC [µg/mL]
1,CCO/N=C1/CN(c2nc3c(cc2F)c(=O)c(C(=O)O)cn3[C@@H]2C[C@@H]2F)CC1CN (some centres not stated),16

# Tested on: Staphylococcus aureus
# Assay: Antibacterial activity against methicillin-sensitive Staphylococcus aureus 12-1 after 18 to 24 hrs by standard twofold serial dilution method
# Type: functional
row,Compound,MIC [µg/mL]
1,CCO/N=C1/CN(c2nc3c(cc2F)c(=O)c(C(=O)O)cn3[C@@H]2C[C@@H]2F)CC1CN (some centres not stated),0.015

# Tested on: Staphylococcus aureus
# Assay: Antibacterial activity against methicillin-resistant Staphylococcus aureus 12-5 after 18 to 24 hrs by standard twofold serial dilution method
# Type: functional
row,Compound,MIC [µg/mL]
1,CCO/N=C1/CN(c2nc3c(cc2F)c(=O)c(C(=O)O)cn3[C@@H]2C[C@@H]2F)CC1CN (some centres not stated),4

# Tested on: Staphylococcus aureus
# Assay: Antibacterial activity against methicillin-sensitive Staphylococcus aureus 12-4 after 18 to 24 hrs by standard twofold serial dilution method
# Type: functional
row,Compound,MIC [µg/mL]
1,CCO/N=C1/CN(c2nc3c(cc2F)c(=O)c(C(=O)O)cn3[C@@H]2C[C@@H]2F)CC1CN (some centres not stated),0.015

# Tested on: Escherichia coli
# Assay: Antibacterial activity against Escherichia coli 12-1 after 18 to 24 hrs by standard twofold serial dilution method
# Type: functional
row,Compound,MIC [µg/mL]
1,CCO/N=C1/CN(c2nc3c(cc2F)c(=O)c(C(=O)O)cn3[C@@H]2C[C@@H]2F)CC1CN (some centres not stated),0.06

# Tested on: Staphylococcus epidermidis
# Assay: Antibacterial activity against methicillin-sensitive Staphylococcus epidermidis 12-6 after 18 to 24 hrs by standard twofold serial dilution method
# Type: functional
row,Compound,MIC [µg/mL]
1,CCO/N=C1/CN(c2nc3c(cc2F)c(=O)c(C(=O)O)cn3[C@@H]2C[C@@H]2F)CC1CN (some centres not stated),0.015

# Tested on: Staphylococcus aureus
# Assay: Antibacterial activity against methicillin-sensitive Staphylococcus aureus 12-5 after 18 to 24 hrs by standard twofold serial dilution method
# Type: functional
row,Compound,MIC [µg/mL]
1,CCO/N=C1/CN(c2nc3c(cc2F)c(=O)c(C(=O)O)cn3[C@@H]2C[C@@H]2F)CC1CN (some centres not stated),0.015

# Tested on: Staphylococcus epidermidis
# Assay: Antibacterial activity against methicillin-sensitive Staphylococcus epidermidis 12-1 after 18 to 24 hrs by standard twofold serial dilution method
# Type: functional
row,Compound,MIC [µg/mL]
1,CCO/N=C1/CN(c2nc3c(cc2F)c(=O)c(C(=O)O)cn3[C@@H]2C[C@@H]2F)CC1CN (some centres not stated),< 0.008

# Tested on: Klebsiella pneumoniae
# Assay: Antibacterial activity against Klebsiella pneumoniae 12-4 after 18 to 24 hrs by standard twofold serial dilution method
# Type: functional
row,Compound,MIC [µg/mL]
1,CCO/N=C1/CN(c2nc3c(cc2F)c(=O)c(C(=O)O)cn3[C@@H]2C[C@@H]2F)CC1CN (some centres not stated),0.125

# Tested on: Klebsiella pneumoniae
# Assay: Antibacterial activity against Klebsiella pneumoniae 12-2 after 18 to 24 hrs by standard twofold serial dilution method
# Type: functional
row,Compound,MIC [µg/mL]
1,CCO/N=C1/CN(c2nc3c(cc2F)c(=O)c(C(=O)O)cn3[C@@H]2C[C@@H]2F)CC1CN (some centres not stated),0.06

# Tested on: Pseudomonas aeruginosa
# Assay: Antibacterial activity against Pseudomonas aeruginosa 12-14 after 18 to 24 hrs by standard twofold serial dilution method
# Type: functional
row,Compound,MIC [µg/mL]
1,CCO/N=C1/CN(c2nc3c(cc2F)c(=O)c(C(=O)O)cn3[C@@H]2C[C@@H]2F)CC1CN (some centres not stated),2

# Tested on: Staphylococcus epidermidis
# Assay: Antibacterial activity against methicillin-sensitive Staphylococcus epidermidis 12-8 after 18 to 24 hrs by standard twofold serial dilution method
# Type: functional
row,Compound,MIC [µg/mL]
1,CCO/N=C1/CN(c2nc3c(cc2F)c(=O)c(C(=O)O)cn3[C@@H]2C[C@@H]2F)CC1CN (some centres not stated),0.25

# Tested on: Staphylococcus epidermidis
# Assay: Antibacterial activity against methicillin-resistant Staphylococcus epidermidis 12-6 after 18 to 24 hrs by standard twofold serial dilution method
# Type: functional
row,Compound,MIC [µg/mL]
1,CCO/N=C1/CN(c2nc3c(cc2F)c(=O)c(C(=O)O)cn3[C@@H]2C[C@@H]2F)CC1CN (some centres not stated),4

# Tested on: Escherichia coli
# Assay: Antibacterial activity against extended-spectrum beta-lactamase producing Escherichia coli 12-14 after 18 to 24 hrs by standard twofold serial dilution method
# Type: functional
row,Compound,MIC [µg/mL]
1,CCO/N=C1/CN(c2nc3c(cc2F)c(=O)c(C(=O)O)cn3[C@@H]2C[C@@H]2F)CC1CN (some centres not stated),16

# Tested on: Staphylococcus epidermidis
# Assay: Antibacterial activity against methicillin-sensitive Staphylococcus epidermidis 12-3 after 18 to 24 hrs by standard twofold serial dilution method
# Type: functional
row,Compound,MIC [µg/mL]
1,CCO/N=C1/CN(c2nc3c(cc2F)c(=O)c(C(=O)O)cn3[C@@H]2C[C@@H]2F)CC1CN (some centres not stated),0.03

# Tested on: Staphylococcus aureus
# Assay: Antibacterial activity against methicillin-resistant Staphylococcus aureus 12-2 after 18 to 24 hrs by standard twofold serial dilution method
# Type: functional
row,Compound,MIC [µg/mL]
1,CCO/N=C1/CN(c2nc3c(cc2F)c(=O)c(C(=O)O)cn3[C@@H]2C[C@@H]2F)CC1CN (some centres not stated),4

# Tested on: Escherichia coli
# Assay: Antibacterial activity against Escherichia coli ATCC 25922 after 18 to 24 hrs by standard twofold serial dilution method
# Type: functional
row,Compound,MIC [µg/mL]
1,CCO/N=C1/CN(c2nc3c(cc2F)c(=O)c(C(=O)O)cn3[C@@H]2C[C@@H]2F)CC1CN (some centres not stated),< 0.008

# Tested on: Escherichia coli
# Assay: Antibacterial activity against extended-spectrum beta-lactamase producing Escherichia coli 12-15 after 18 to 24 hrs by standard twofold serial dilution method
# Type: functional
row,Compound,MIC [µg/mL]
1,CCO/N=C1/CN(c2nc3c(cc2F)c(=O)c(C(=O)O)cn3[C@@H]2C[C@@H]2F)CC1CN (some centres not stated),128

# Tested on: Staphylococcus aureus
# Assay: Antibacterial activity against Staphylococcus aureus ATCC 25923 after 18 to 24 hrs by standard twofold serial dilution method
# Type: functional
row,Compound,MIC [µg/mL]
1,CCO/N=C1/CN(c2nc3c(cc2F)c(=O)c(C(=O)O)cn3[C@@H]2C[C@@H]2F)CC1CN (some centres not stated),< 0.008

# Tested on: Streptococcus pneumoniae
# Assay: Antibacterial activity against Streptococcus pneumoniae 12-18 after 18 to 24 hrs by standard twofold serial dilution method
# Type: functional
row,Compound,MIC [µg/mL]
1,CCO/N=C1/CN(c2nc3c(cc2F)c(=O)c(C(=O)O)cn3[C@@H]2C[C@@H]2F)CC1CN (some centres not stated),0.06

# Tested on: Klebsiella pneumoniae
# Assay: Antibacterial activity against extended-spectrum beta-lactamase producin Klebsiella pneumoniae 12-14 after 18 to 24 hrs by standard twofold serial dilution method
# Type: functional
row,Compound,MIC [µg/mL]
1,CCO/N=C1/CN(c2nc3c(cc2F)c(=O)c(C(=O)O)cn3[C@@H]2C[C@@H]2F)CC1CN (some centres not stated),32

# Tested on: Escherichia coli
# Assay: Antibacterial activity against extended-spectrum beta-lactamase producing Escherichia coli 12-2 after 18 to 24 hrs by standard twofold serial dilution method
# Type: functional
row,Compound,MIC [µg/mL]
1,CCO/N=C1/CN(c2nc3c(cc2F)c(=O)c(C(=O)O)cn3[C@@H]2C[C@@H]2F)CC1CN (some centres not stated),64

# Tested on: Staphylococcus aureus
# Assay: Antibacterial activity against methicillin-sensitive Staphylococcus aureus 12-2 after 18 to 24 hrs by standard twofold serial dilution method
# Type: functional
row,Compound,MIC [µg/mL]
1,CCO/N=C1/CN(c2nc3c(cc2F)c(=O)c(C(=O)O)cn3[C@@H]2C[C@@H]2F)CC1CN (some centres not stated),0.015

# Tested on: Staphylococcus epidermidis
# Assay: Antibacterial activity against methicillin-resistant Staphylococcus epidermidis 12-1 after 18 to 24 hrs by standard twofold serial dilution method
# Type: functional
row,Compound,MIC [µg/mL]
1,CCO/N=C1/CN(c2nc3c(cc2F)c(=O)c(C(=O)O)cn3[C@@H]2C[C@@H]2F)CC1CN (some centres not stated),1

# Tested on: Streptococcus pneumoniae
# Assay: Antibacterial activity against Streptococcus pneumoniae ATCC 49619 after 18 to 24 hrs by standard twofold serial dilution method
# Type: functional
row,Compound,MIC [µg/mL]
1,CCO/N=C1/CN(c2nc3c(cc2F)c(=O)c(C(=O)O)cn3[C@@H]2C[C@@H]2F)CC1CN (some centres not stated),0.03
